PubChem BioAssay (NCI)
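A five-concentration, 48-hour dose response in 96-well plates underlies each endpoint, interpolated linearly between surrounding concentrations. GI50 marks 50% less growth. TGI is the concentration that stops growth completely.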

Columns and labels:
Assay in all cases: NCI anticancer screen, dose series, 48 h
786-0 renal = tested on: 786-0 renal
A498 renal = tested on: A498 renal
A549 NSCLC = tested on: A549 NSCLC
ACHN renal = tested on: ACHN renal
BT-549 breast = tested on: BT-549 breast
CAKI-1 renal = tested on: CAKI-1 renal
CCRF-CEM leukemia = tested on: CCRF-CEM leukemia
COLO 205 colon = tested on: COLO 205 colon
DU-145 prostate = tested on: DU-145 prostate
EKVX NSCLC = tested on: EKVX NSCLC
HCC-2998 colon = tested on: HCC-2998 colon
HCT-116 colon = tested on: HCT-116 colon
HCT-15 colon = tested on: HCT-15 colon
HL-60(TB) leukemia = tested on: HL-60(TB) leukemia
HOP-62 NSCLC = tested on: HOP-62 NSCLC
HOP-92 NSCLC = tested on: HOP-92 NSCLC
HS 578T breast = tested on: HS 578T breast
HT29 colon = tested on: HT29 colon
IGROV1 ovarian = tested on: IGROV1 ovarian
K-562 leukemia = tested on: K-562 leukemia
KM12 colon = tested on: KM12 colon
LOX IMVI melanoma = tested on: LOX IMVI melanoma
M14 melanoma = tested on: M14 melanoma
MALME-3M melanoma = tested on: MALME-3M melanoma
MCF7 breast = tested on: MCF7 breast
MDA-MB-231 breast = tested on: MDA-MB-231 breast
MDA-MB-435 = tested on: MDA-MB-435
MOLT-4 leukemia = tested on: MOLT-4 leukemia
NCI-H226 lung = tested on: NCI-H226 lung
NCI-H23 lung = tested on: NCI-H23 lung
NCI-H460 lung = tested on: NCI-H460 lung
NCI-H522 lung = tested on: NCI-H522 lung
NCI/ADR-RES ovarian = tested on: NCI/ADR-RES ovarian
OVCAR-3 ovarian = tested on: OVCAR-3 ovarian
OVCAR-4 ovarian = tested on: OVCAR-4 ovarian
OVCAR-5 ovarian = tested on: OVCAR-5 ovarian
OVCAR-8 ovarian = tested on: OVCAR-8 ovarian
PC-3 prostate = tested on: PC-3 prostate
RPMI-8226 leukemia = tested on: RPMI-8226 leukemia
RXF 393 renal = tested on: RXF 393 renal
SF-268 CNS = tested on: SF-268 CNS
SF-295 CNS = tested on: SF-295 CNS
SF-539 CNS = tested on: SF-539 CNS
SK-MEL-2 melanoma = tested on: SK-MEL-2 melanoma
SK-MEL-28 melanoma = tested on: SK-MEL-28 melanoma
SK-MEL-5 melanoma = tested on: SK-MEL-5 melanoma
SK-OV-3 ovarian = tested on: SK-OV-3 ovarian
SN12C renal = tested on: SN12C renal
SNB-19 CNS = tested on: SNB-19 CNS
SNB-75 CNS = tested on: SNB-75 CNS
SR leukemia = tested on: SR leukemia
SW-620 colon = tested on: SW-620 colon
T-47D breast = tested on: T-47D breast
TK-10 renal = tested on: TK-10 renal
U251 CNS = tested on: U251 CNS
UACC-257 melanoma = tested on: UACC-257 melanoma
UACC-62 melanoma = tested on: UACC-62 melanoma
UO-31 renal = tested on: UO-31 renal

For `C#CCNC(=O)CC[C@]1(C)[C@H]2CC[C@@H]3[C@@H]([C@@](C)(O)CCC=C(C)C)CC[C@@]3(C)[C@]2(C)CC[C@H]1C(=C)C`, the GI50 (786-0 renal) was 12.2 µM, the TGI (786-0 renal) was 30 µM and the GI50 (A498 renal) was over 100 µM. It also gave a TGI (A498 renal) of over 100 µM, a GI50 (A549 NSCLC) of 42.7 µM and a TGI (A549 NSCLC) of over 100 µM. The GI50 (ACHN renal) was 25.3 µM, the TGI (ACHN renal) was over 100 µM and the GI50 (BT-549 breast) was 29 µM. For the same compound, the TGI (BT-549 breast) was over 100 µM, the GI50 (CAKI-1 renal) was 4.25 µM and the TGI (CAKI-1 renal) was 17.7 µM. It also gave a GI50 (CCRF-CEM leukemia) of 6.77 µM, a TGI (CCRF-CEM leukemia) of 28.7 µM and a GI50 (COLO 205 colon) of 31.9 µM. The TGI (COLO 205 colon) was over 100 µM, the GI50 (DU-145 prostate) was 34.8 µM and the TGI (DU-145 prostate) was over 100 µM. It also gave a GI50 (EKVX NSCLC) of 47.9 µM, a TGI (EKVX NSCLC) of over 100 µM and a GI50 (HCC-2998 colon) of 45.8 µM. It also gave a TGI (HCC-2998 colon) of over 100 µM, a GI50 (HCT-116 colon) of 17.8 µM and a TGI (HCT-116 colon) of 35.6 µM. For the same compound, the GI50 (HCT-15 colon) was 20.8 µM, the TGI (HCT-15 colon) was 59.3 µM and the GI50 (HL-60(TB) leukemia) was 1.19 µM. The TGI (HL-60(TB) leukemia) was 15.9 µM, the GI50 (HOP-62 NSCLC) was 35 µM and the TGI (HOP-62 NSCLC) was over 100 µM. For the same compound, the GI50 (HOP-92 NSCLC) was 14.8 µM, the TGI (HOP-92 NSCLC) was 34.2 µM and the GI50 (HS 578T breast) was 50.2 µM. The TGI (HS 578T breast) was over 100 µM, the GI50 (HT29 colon) was 18.8 µM and the TGI (HT29 colon) was 42.9 µM. It also gave a GI50 (IGROV1 ovarian) of 10.2 µM, a TGI (IGROV1 ovarian) of 25.4 µM and a GI50 (K-562 leukemia) of 17.8 µM. The TGI (K-562 leukemia) was 49.6 µM, the GI50 (KM12 colon) was 38.5 µM and the TGI (KM12 colon) was over 100 µM. The GI50 (LOX IMVI melanoma) was 9.73 µM, the TGI (LOX IMVI melanoma) was 27.4 µM and the GI50 (M14 melanoma) was 30.9 µM. The TGI (M14 melanoma) was over 100 µM, the GI50 (MALME-3M melanoma) was 16.4 µM and the TGI (MALME-3M melanoma) was 35 µM. The GI50 (MCF7 breast) was 24.7 µM, the TGI (MCF7 breast) was over 100 µM and the GI50 (MDA-MB-231 breast) was 22.3 µM. It also gave a TGI (MDA-MB-231 breast) of 67.5 µM, a GI50 (MDA-MB-435) of 38.1 µM and a TGI (MDA-MB-435) of over 100 µM. For the same compound, the GI50 (MOLT-4 leukemia) was 17 µM, the TGI (MOLT-4 leukemia) was 47.3 µM and the GI50 (NCI-H226 lung) was 18.3 µM. The TGI (NCI-H226 lung) was 43.1 µM, the GI50 (NCI-H23 lung) was 27.7 µM and the TGI (NCI-H23 lung) was over 100 µM. It also gave a GI50 (NCI-H460 lung) of 31.2 µM, a TGI (NCI-H460 lung) of over 100 µM and a GI50 (NCI-H522 lung) of 15.2 µM. For the same compound, the TGI (NCI-H522 lung) was 35.1 µM, the GI50 (NCI/ADR-RES ovarian) was 40.5 µM and the TGI (NCI/ADR-RES ovarian) was over 100 µM. It also gave a GI50 (OVCAR-3 ovarian) of 31.3 µM, a TGI (OVCAR-3 ovarian) of 89.9 µM and a GI50 (OVCAR-4 ovarian) of 43.6 µM. The TGI (OVCAR-4 ovarian) was over 100 µM, the GI50 (OVCAR-5 ovarian) was 51.9 µM and the TGI (OVCAR-5 ovarian) was over 100 µM. It also gave a GI50 (OVCAR-8 ovarian) of 31.3 µM, a TGI (OVCAR-8 ovarian) of over 100 µM and a GI50 (PC-3 prostate) of 17.4 µM. It also gave a TGI (PC-3 prostate) of 70 µM, a GI50 (RPMI-8226 leukemia) of 20.1 µM and a TGI (RPMI-8226 leukemia) of 62.9 µM. It also gave a GI50 (RXF 393 renal) of 26.2 µM, a TGI (RXF 393 renal) of 81.9 µM and a GI50 (SF-268 CNS) of 22 µM. For the same compound, the TGI (SF-268 CNS) was 57.1 µM, the GI50 (SF-295 CNS) was 48.4 µM and the TGI (SF-295 CNS) was over 100 µM. It also gave a GI50 (SF-539 CNS) of 17.2 µM, a TGI (SF-539 CNS) of 31.1 µM and a GI50 (SK-MEL-2 melanoma) of 47.1 µM. It also gave a TGI (SK-MEL-2 melanoma) of over 100 µM, a GI50 (SK-MEL-28 melanoma) of 26.9 µM and a TGI (SK-MEL-28 melanoma) of 80 µM. For the same compound, the GI50 (SK-MEL-5 melanoma) was 38.8 µM, the TGI (SK-MEL-5 melanoma) was over 100 µM and the GI50 (SK-OV-3 ovarian) was over 100 µM. For the same compound, the TGI (SK-OV-3 ovarian) was over 100 µM, the GI50 (SN12C renal) was 31.8 µM and the TGI (SN12C renal) was over 100 µM. For the same compound, the GI50 (SNB-19 CNS) was 56.1 µM, the TGI (SNB-19 CNS) was over 100 µM and the GI50 (SNB-75 CNS) was over 100 µM. For the same compound, the TGI (SNB-75 CNS) was over 100 µM, the GI50 (SR leukemia) was 3.05 µM and the TGI (SR leukemia) was 19.2 µM. For the same compound, the GI50 (SW-620 colon) was 29.4 µM, the TGI (SW-620 colon) was over 100 µM and the GI50 (T-47D breast) was 35 µM. It also gave a TGI (T-47D breast) of over 100 µM, a GI50 (TK-10 renal) of 43.7 µM and a TGI (TK-10 renal) of over 100 µM. The GI50 (U251 CNS) was 20.1 µM, the TGI (U251 CNS) was 49.5 µM and the GI50 (UACC-257 melanoma) was 68 µM. The TGI (UACC-257 melanoma) was over 100 µM, the GI50 (UACC-62 melanoma) was 22.5 µM and the TGI (UACC-62 melanoma) was over 100 µM. For the same compound, the GI50 (UO-31 renal) was 14.1 µM and the TGI (UO-31 renal) was 29.1 µM.
